According to the NIST ThermoML archive (doi:10.1016/j.jct.2016.06.010):
Numbers after ± are expanded uncertainties.

Assays:
[1] = refractive index (Na D-line) (dimensionless); conditions: 293.15 K; 101.33 kPa; Liquid; Standard Abbe refractometry
[2] = 293.15 K; 101.33 kPa; Liquid; Vibrating tube method

| Structure (SMILES) | refractive index [1] | mass density [2] [kg/m3] |
| --- | --- | --- |
| CO [methanol] | 1.32826 ± 0.001 | 791.2 ± 2 |
| CC12CCC(CC1)C(C)(C)O2 [1,3,3-trimethyl-2-oxabicyclo[2.2.2]octane] | 1.45756 ± 0.0011 | 924.84 ± 2 |

More lines, now with the values ahead:

| refractive index [1] | mass density [2] [kg/m3] | Structure (SMILES) |
| --- | --- | --- |
| 1.39911 ± 0.001 | 809.75 ± 2 | CCCCO [butan-1-ol] |
| 1.38461 ± 0.001 | 803.85 ± 2 | CCCO [propan-1-ol] |
| 1.36134 ± 0.001 | 789.38 ± 2 | CCO [ethanol] |
